PMC11939259, “Antiparasitic and Antifungal Activities of Cetyl-Maritima, a New N-Cetyl-Modified Maritima Derivative” (Antibiotics, 2025)
Values joined by “and” are separate entries in the source; they are usually repeats but may differ in a detail not shown here. Equal values may be shown once. Read-outs that look alike come from different tables or passages of the source.

Experiments:
[1] = test system: M. mycetomatis fungal strain MM55; assay: M. mycetomatis MM55 in vitro susceptibility, MTS metabolic activity; type: cell-based, Madurella mycetomatis; conditions: for Metabolic activity upon treatment at 25 μM / Metabolic activity upon treatment at 100 μM: ± SD
Protocol: The M. mycetomatis MM55 isolate obtained from a patient and identified and maintained in the Erasmus Medical Centre, Rotterdam, The Netherlands, was applied for the investigation of the in vitro susceptibility of the test compounds as reported previously [94]. In short, the fungal isolate was cultured on Sabouraud agar for 2 weeks at 37 °C, after which the mycelium was transferred in colorless RPMI 1640 medium supplemented with L-glutamine (0.3 g/L; Capricorn-Scientific, Ebsdorfergrund, Germany), morpholinepropanesulfonic acid (MOPS, 20 mM, Sigma, St. Louis, MO, USA), and chloramphenicol (100 mg/L, Oxoid, Basingstroke, UK). The mycelium was sonicated for 10 s at 10 μm with a probe sonicator (Soniprep, Beun de Ronde, Abcoude, The Netherlands) to obtain a hyphal suspension, after which the hyphal suspension was cultured for another week at 37 °C. The suspension was then collected by centrifugation (5 min, 3400 rpm) and washed with PBS followed by the addition of fresh RPMI 1640 medium, after which the mycelia was again sonicated for 10 s at 10 μm with a probe sonicator. The hyphal suspension was diluted to a transmission of 70% at 660 nm (Novaspec II; Pharmacia Biotech, Uppsala, Sweden). Then, 100 μL of the suspension was added to each well of a 96-wells plate (Costar 3799, Fisher Scientific, Breda, The Netherlands) that contained 1 μL of each compound sample. Compounds were initially evaluated at concentrations of 100 μM and 25 μM.
For the final metabolic activity evaluation, a viability dye named MTS, 3-(4,5-dimethylthiazol-2-yl)-5-(3-carboxymethoxyphenyl)-2-(4-sulfophenyl)-2H-tetrazolium salt, was applied as described in a previous study [64]. The following formula was used: Percentage metabolic activity=Absorbance test490nm−Absorbance NC490nm/Absorbance GC490nm−Absorbance NC490nm∗100
The growth control (GC) refers to the fungal isolate only and indicates 100% metabolic activity.

[2] = test system: T. gondii RH strain tachyzoites; assay: T. gondii growth inhibition in infected Vero cells (infection index); type: cell-based, Toxoplasma gondii
Protocol: Cells of the Vero cell line (ATCC® CCL81™, Manassas, VA, USA) were used to cultivate T. gondii RH strain tachyzoites. The effects of test compounds on T. gondii growth were investigated according to previously published methods. Vero cells were maintained in complete RPMI 1640 medium supplemented with 10% heat-inactivated FBS, under a humidified atmosphere containing 5% CO2 at 37 °C. The cells were seeded in 96-well plates at a density of 5 × 10^3 cells/well (see also Figure S7) in 200 μL of RPMI 1640 medium and incubated at 37 °C with 5% CO2 for 24 h. Following incubation, the medium was discarded, and cells were washed with PBS. Subsequently, RPMI 1640 medium containing 2% FBS and T. gondii tachyzoites was added at a ratio of 5 parasite cells to 1 Vero cell. After 5 h incubation at 37 °C and 5% CO2, cells were washed with PBS and processed as outlined below.
Control: RPMI 1640 medium with 0.8% DMSO.
Experimental: RPMI 1640 medium containing test compounds (dissolved in DMSO) at concentrations of 90, 30, 10, 3.3, 1.1, 0.37, and 0.12 μg/mL. Atovaquone (ATO) was used as positive control.
Cells were incubated at 37 °C and 5% CO2 for 72 h, washed with PBS, fixed in 10% formalin, and stained with 1% toluidine blue. The infection index, defined as the number of infected cells out of 200 examined cells, was determined using an inverted photomicroscope.
The percentage of inhibition was calculated using the following equation:Inhibition (%) = [(I Control − I Experimental)/I Control] × 100 where “I Control” is the infection index of untreated cells, and “I Experimental” is the infection index of cells treated with test compounds.

Vero monkey kidney cells = assay: Vero cell cytotoxicity (MTT); type: cell-based; conditions: Primates, 72 h, ± S.D
Protocol: MTT assays were performed to assess the cytotoxicity of the test compounds. Vero cells and isolated macrophages were seeded in 96-well plates at a density of 5 × 10^3 cells per well in 200 μL of RPMI 1640 medium with 10% FBS and incubated at 37 °C with 5% CO2 for 24 h. After incubation, cells were washed with PBS and treated with test compounds at varying concentrations (90, 30, 10, 3.3, 1.1, 0.37, and 0.12 μg/mL) in 10% FBS medium for 72 h. Negative control wells contained cells treated with medium in 2% FBS without test compounds (see also raw data in Table S5). After treatment, the supernatant was removed, and 50 μL of RPMI 1640 medium containing 14 μL of MTT solution (5 mg/mL) was added. The cells were incubated for an additional 4 h. Following incubation, the supernatant was discarded, and 200 μL of DMSO was added to dissolve the formazan crystals. The absorbance was measured at 540 nm using a FLUOstar OPTIMA spectrophotometer (BMG LABTECH, Ortenberg, Germany). […] IC50 values were determined from three independent experiments.

L. major promastigotes = assay: L. major promastigote viability (MTT); type: cell-based; conditions: Leishmania major, 72 h, read-out: IC50 Promastigotes
[3] = test system: L. major intramacrophageal amastigotes; assay: L. major intramacrophageal amastigote assay (Giemsa, infected macrophages); type: cell-based, Leishmania major; conditions: for IC50: Leishmania major, Macrophage, 72 h, read-out: IC50 Amastigotes
Protocol: Promastigotes of L. major were isolated from a patient in February 2016 and cultured at 26 °C in Schneider’s Drosophila medium (Invitrogen, Carlsbad, CA, USA) supplemented with 10% heat-inactivated fetal bovine serum (FBS, Invitrogen, USA) and antibiotics. Cultures were maintained in tissue culture flasks with weekly transfers. The promastigotes were cryopreserved in liquid N2 at a concentration of 3 × 10^6 parasites/mL. Virulent L. major parasites were maintained by serial passage in BALB/c mice through hind footpad injections of 1 × 10^6 stationary-phase promastigotes, and amastigotes were isolated after 7 weeks. Isolated amastigotes were converted to promastigotes by culturing at 26 °C in Schneider’s medium with antibiotics and 10% FBS. Amastigote-derived promastigotes, with fewer than five in vitro passages, were used for infection experiments.
(§1) For amastigote activity assays, peritoneal macrophages were collected from BALB/c mice (7 weeks old) by aspiration. Cells (5 × 10^4 cells/well) were seeded into 96-well plates (see also Figure S7) with phenol red-free RPMI 1640 medium containing 10% FBS and incubated at 37 °C with 5% CO2 for 4 h to allow adhesion. After discarding the medium and washing with PBS, 200 μL of L. major promastigotes in RPMI 1640 medium (10 promastigotes per macrophage) were added. Plates were incubated at 37 °C with 5% CO2 for 24 h to promote macrophage infection and amastigote differentiation. Unattached promastigotes were removed by washing with PBS (three times), and fresh phenol red-free RPMI 1640 medium containing test compounds (90, 30, 10, 3.3, 1.1, 0.37, and 0.12 μg/mL) was added. Cultures were incubated at 37 °C in 5% CO2 for 72 h. […] After incubation, cells were fixed and Giemsa-stained, and the percentage of infected macrophages was determined microscopically. IC50 values were calculated from three independent experiments. The isolation of parasites and macrophages was performed strictly following the rules and guidelines of the responsible committee of research ethics, Deanship of Scientific Research, Qassim University, Kingdom of Saudi Arabia (permission number 20-03-20).

peritoneal macrophages = assay: Macrophage cytotoxicity (MTT); type: cell-based, BALB/c mice; conditions: Mus musculus, 72 h, read-out: IC50 Macrophages
Protocol: as §1, with “The isolation of parasites and macrophages was performed strictly following the rules and guidelines of the responsible committee of research ethics, Deanship of Scientific Research, Qassim University, Kingdom of Saudi Arabia (permission number 20-03-20).” left out
MTT assays were performed to assess the cytotoxicity of the test compounds. […] The absorbance was measured at 540 nm using a FLUOstar OPTIMA spectrophotometer (BMG LABTECH, Ortenberg, Germany). […] IC50 values were determined from three independent experiments.

[4] = test system: M. mycetomatis fungal strain MM55; set-up: method as in PMID 37067830; conditions: positive control, cited from earlier work
eumycetoma = test system: eumycetoma; set-up: method as in PMID 38690871, PMID 38935904, PMID 39098321; conditions: eumycetoma patients, conditions of a clinical trial, combined with surgery; cited from earlier work
[5] = Madurella mycetomatis, read-out: IC50

Molecule: CCCCCCCCCCCCCCCC[n+]1ccccc1C [C2PicBr]
- Metabolic activity upon treatment at 25 μM [1]: 8.7 ± 0.8%
- Metabolic activity upon treatment at 100 μM [1]: 4.5 ± 0.8%
- IC50 [1, 5]: 16.1 µM

Molecule: CCCCCCCCCCCCCCCC[n+]1ccc(C)cc1 [C4PicBr]
- Metabolic activity upon treatment at 25 μM [1]: 18.4 ± 17.7%
- Metabolic activity upon treatment at 100 μM [1]: 5.0 ± 0.8%
- IC50 [1, 5]: 16.1 µM

Molecule: CCCCCCCCCCCCCCCC[n+]1ccc(CCC=C(C)CCC=C(C)C)cc1.[Br-] [Cetyl-Maritima, 1-Hexadecyl-4-(4,8-dimethyl-3,7-nonadienyl)-pyridinium Bromide]
- IC50 [1]: 8.2 µM
- Metabolic activity upon treatment at 25 μM [1]: 12.2 ± 6.9%
- Metabolic activity upon treatment at 100 μM [1]: 13.1 ± 2.0%
- IC50 ([1]; Madurella mycetomatis): ~8 µM
- SI selectivity index (Vero/T. gondii) [2]: 1.3
- IC50 ([2]; 72 h; ± S.D): 8.6 ± 1.2 µM
- IC50 ([2]; Toxoplasma gondii, Vero, 72 h; ± S.D): ~8 µM
- IC50 (Vero monkey kidney cells): 11.4 ± 1.3 µM
- IC50 (L. major promastigotes): 1.5 ± 0.2 µM
- SI selectivity index (macrophages/L. major amastigotes) [3]: 7.2
- SI selectivity index, Vero kidney cells vs L. major amastigotes [3]: 19
- IC50 [3]: 0.6 ± 0.2 µM
- IC50 (peritoneal macrophages): 4.3 ± 0.5 µM

Molecule: CCCCCCCCCCCCCCCC[n+]1ccc(/C=C/c2ccc(N(C)C)cc2)cc1 [DAMS-16]
- Metabolic activity upon treatment at 25 μM [1]: 56.9 ± 69.3%
- Metabolic activity upon treatment at 100 μM [1]: 25.4 ± 4.3%
- IC50 [1, 5]: 16 µM

Molecule: CCC(C)n1ncn(-c2ccc(N3CCN(c4ccc(OCC5COC(Cn6cncn6)(c6ccc(Cl)cc6Cl)O5)cc4)CC3)cc2)c1=O (stereo not drawn) [Itraconazole, itraconazole]
- Metabolic activity upon treatment at 25 μM ([4]; 25 μM, ± SD): −1.04 ± 2.37%
- Metabolic activity upon treatment at 100 μM ([4]; 100 μM, ± SD): 2.34 ± 4.49%
- IC50 [4]: 0.09 µM
- cure rate (eumycetoma): > 70%

Molecule: CC(C)=CCCC(C)=CCCc1ccncc1 [Maritima, 4-(4,8-dimethyl-3,7-nonadienyl)-pyridine]
- Metabolic activity upon treatment at 25 μM [1]: 54% and 54.3 ± 7.5%
- Metabolic activity upon treatment at 100 μM [1]: 13.8 ± 33.8%
- IC50 ([2]; Toxoplasma gondii, Vero; 72 h; ± S.D): > 314 µM
- IC50 (Vero monkey kidney cells): > 314 µM
- IC50 (L. major promastigotes; ± S.D): > 314 µM
- IC50 ([3]; intramacrophageal, ± S.D): > 314 µM
- IC50 (peritoneal macrophages; ± S.D): > 314 µM

Molecule: CCCCCCCCCCCCCCCC[n+]1ccc(/C=C/c2cc(OC)c(OC)c(OC)c2)cc1 [TMP-16]
- Metabolic activity upon treatment at 25 μM [1]: 13.3 ± 1.5%
- Metabolic activity upon treatment at 100 μM [1]: 19.1 ± 1.1%
- IC50 [1, 5]: 18.2 µM

Molecule: C[C@@H](c1nc(-c2ccc(C#N)cc2)cs1)[C@@](Cn1cncn1)(OCOP(=O)(O)O)c1ccc(F)cc1F [fosravuconazole]
- cure rate (eumycetoma): > 70%

Molecule: Dichlorido(η^6-p-cymene)[4-(4,8-dimethyl-3,7-nonadienyl)-pyridine]ruthenium(II) [Ru-Maritima]
- Metabolic activity upon treatment at 25 μM [1]: 155% and 155.7 ± 22.2%
- Metabolic activity upon treatment at 100 μM [1]: −6.6 ± 12.2%
